Series [1] concerns P. aeruginosa (ATCC19660).
Series [2] relates to P. acnes. The series is described as follows: P. acnes-induced inflammatory response in ICR mouse ears. In kind it is in vivo. The following applies: ICR mice. As for the experimental part:
Right ears of ICR mice (Harlan, Indianapolis, Ind.) were intradermally injected with P. acnes (1×10^8 CFU per 20 μl in Phosphate-Buffered Saline (PBS)) with or without HPA3NT3 peptide (6.4 μM). Left ears of the same mice were injected with 20 μl of PBS. In negative control ICR mice, right ears remained untreated while left ears received intradermal injections of PBS. For histological observation, the cross-sectioned ear was stained with hematoxylin and eosin (Sigma) and viewed on a Zeiss Axioskop2 plus microscope (Carl Zeiss) 24 to 48 hours after injection. The increase in ear thickness was measured using a micro caliper (Mitutoyo 547-400S; MSI Viking Gage, Charleston, S.C.) prior to, and at 24, 48, and 72 hours post injection. The percent difference in ear thickness (right vs. left ear) was determined by an induced ear inflammation ratio (percent difference in the experimental ear divided by the percent difference in the control ears). Ten milligrams of tissue from an 8 mm biopsy that was punched from ears at 24 hours after P. acnes injection was homogenized in 250 μl of sterile PBS with a tissue grinder. CFUs of P. acnes were determined by plating serial dilutions of the homogenate on an agar plate under anaerobic conditions for 48 hours.

In series [3] the test system is P. aeruginosa derived from patient specimens.
Series [4] has as its system human keratinocytes (HK cells).
The next series in a line: in vitro. The following applies: human, HK cells (human keratinocytes).
For series [5], the system named is P. aeruginosa derived from patient specimens. Nature of the series: microbe, parasite or virus in culture. The following applies: Pseudomonas aeruginosa, read-out: MIC against P. aeruginosa.
The subject of series [6] is P. acnes. Nature of the series: MIC test by microdilution assay against P. acnes. In kind it is cell-based, Propionibacterium acnes. For orientation: Dilution methods test growth across graded concentrations, often in twofold steps.
Series [7] concerns P. acnes. The settings on record: background, literature; cited from earlier work.
For a further series, the system named is IL-8. The series is described as follows: IL-8 mRNA in P. aeruginosa-infected human corneal epithelial cells. The format is cell-based. The settings on record: HCET cells. As for the experimental part:
Human corneal epithelial cells (HCET cells) were exposed to 2×10^4 CFU/mL tympanitis-derived P. aeruginosa either in the presence or absence of antimicrobial peptides. Specifically, HP(2-20) and its derivatives HPA3NT3, ISFGW, and F1AF8A were added to samples at concentration of 3.2 μM. Moreover, a cathilocidin-derived peptide (P5) was also added to some conditions at a concentration of 1.6 μM.

In another series the test system is M. furfur. Nature of the series: MIC microdilution assay against M. furfur.
Another series deals with S. aureus. The series is described as follows: microbe, parasite or virus in culture. The following applies: Staphylococcus aureus.
The mark [8] stands for this setting: clinical isolate Patient #2 (tympanitis).
Setting [9] is: Cutibacterium acnes, strain ATCC6919, read-out: MIC against P. acnes.
Setting [10] is: Cutibacterium acnes, strain ATCC11828, read-out: MIC against P. acnes.
Where [11] appears, read: clinical isolate Patient #1 (tympanitis).

In brackets after ≈: the same amount, converted by molar mass. Like-named read-outs stand apart in the source and are kept apart here. Where a SMILES comes first, the peptide text is derived from it.

Broadly, the viability is a read-out of living cells in per cent, often relative to untreated cells.

As to `CC[C@H](C)[C@H](NC(=O)CNC(=O)[C@@H](NC(=O)[C@H](CCCCN)NC(=O)[C@H](CCCCN)NC(=O)[C@H](Cc1ccccc1)NC(=O)[C@H](CC(C)C)NC(=O)[C@H](CCCCN)NC(=O)[C@H](Cc1c[nH]c2ccccc12)NC(=O)[C@@H](N)CCCCN)[C@@H](C)CC)C(=O)NCC(=O)N[C@@H](CCCCN)C(=O)N[C@@H](Cc1ccccc1)C(=O)N[C@@H](CC(C)C)C(=O)N[C@@H](Cc1c[nH]cn1)C(=O)N[C@@H](CO)C(=O)N[C@@H](C)C(=O)N[C@@H](CCCCN)C(=O)N[C@@H](CCCCN)C(=O)N[C@@H](Cc1ccccc1)C(N)=O` [CA-MA] (H-KWKLFKKIGIGKFLHSAKKF-NH2), in series [1], the “MIC against P. aeruginosa (ATCC19660)” value came out at 1.562 µM (≈ 3.76 µg/mL).

For the compound `CC[C@H](C)[C@H](NC(=O)[C@H](CCCCN)NC(=O)[C@H](CCCCN)NC(=O)[C@H](Cc1ccccc1)NC(=O)[C@H](CC(C)C)NC(=O)[C@H](CCCCN)NC(=O)[C@H](CCCCN)NC(=O)[C@H](CC(C)C)NC(=O)[C@H](CCCNC(=N)N)NC(=O)[C@H](CCCCN)NC(=O)[C@@H](N)Cc1ccccc1)C(=O)N[C@@H](Cc1c[nH]c2ccccc12)C(=O)N[C@@H](CC(N)=O)C(=O)N[C@@H](Cc1c[nH]c2ccccc12)C(=O)N[C@@H](CCCCN)C(=O)O` [HPA3NT3] (H-FKRLKKLFKKIWNWK-OH), in the series on P. acnes [2], the “ear thickness or inflammation, peptide alone (histology)” value is recorded as “did not affect ear thickness or inflammation” and the “erythema or ear swelling, peptide in uninfected ears” value was “no significant changes”. The “MIC against P. aeruginosa” value in [3] (derived from patient specimens) worked out at 16 µg/mL (≈ 7.75 µM). Also, in series [4], the Cell viability was 100% and the “cytotoxicity to HK cells” value is “only minimal cytotoxicity”. Besides, in the series “in vitro”, the viability at 24 h, 1.6 µM turned out to be 100%; the viability at 24 h, 3.2 µM came to 100%; the viability at 24 h, 6.4 µM was 100%.

Regarding `CC(C)(O/N=C(\C(=O)N[C@@H]1C(=O)N2C(C(=O)[O-])=C(C[n+]3ccccc3)CS[C@H]12)c1csc(N)n1)C(=O)O` [Ceftazidime, ceftazidime], the “MIC against P. aeruginosa” value in [3] (setting [8]) is over 32 µg/mL. Further, in series [5], the MIC was over 32 µg/mL.

`O=C(OOC(=O)c1ccccc1)c1ccccc1` [Benzoyl Peroxide, benzoyl peroxide]: the MIC stood at 125 µM (≈ 30.3 µg/mL) in the series with P. acnes [6] (setting [9]); 62.5 µM (≈ 15.1 µg/mL) in the series on P. acnes [6] (setting [10]); 62.5 µM (≈ 15.1 µg/mL) in the series with P. acnes [6] (Cutibacterium acnes, text summary of Table 1A, strain not named, read-out: MIC value against P. acnes). The “minimal inhibitory concentration (MIC)” value in the series with P. acnes [7] is 150 µg/mL (≈ 619 µM).

Regarding `CC(C)C[C@H](NC(=O)[C@H](CCCCN)NC(=O)[C@H](CCCCN)NC(=O)[C@H](CC(C)C)NC(=O)[C@H](CC(C)C)NC(=O)[C@H](CCCCN)NC(=O)[C@H](CCCCN)NC(=O)[C@H](CC(C)C)NC(=O)[C@H](CC(C)C)NC(=O)[C@@H]1CCCN1C(=O)[C@H](CCCCN)NC(=O)[C@H](CCCCN)NC(=O)[C@H](CC(C)C)NC(=O)[C@H](CC(C)C)NC(=O)[C@H](CCCCN)NC(=O)[C@H](CCCCN)NC(=O)[C@H](Cc1c[nH]c2ccccc12)NC(=O)[C@@H](N)CCCCN)C(N)=O` [p5] (H-KWKKLLKKPLLKKLLKKL-NH2; N-terminus and C-terminus assumed), the “MIC against P. aeruginosa (ATCC19660)” value in [1] was determined as 0.78 µM (≈ 1.75 µg/mL).

As for `CC[C@H](C)[C@H](NC(=O)[C@H](CCCCN)NC(=O)[C@H](CO)NC(=O)[C@H](Cc1ccccc1)NC(=O)[C@H](CC(C)C)NC(=O)[C@H](CCCCN)NC(=O)[C@H](CCC(=O)O)NC(=O)[C@H](CC(C)C)NC(=O)[C@H](CCCNC(=N)N)NC(=O)[C@H](CCCCN)NC(=O)[C@H](Cc1ccccc1)NC(=O)[C@@H](NC(=O)[C@H](CCCCN)NC(=O)[C@H](CCCCN)NC(=O)[C@H](C)N)C(C)C)C(=O)N[C@@H](CCC(N)=O)C(=O)N[C@@H](CC(N)=O)C(=O)N[C@@H](CC(=O)O)C(=O)N[C@@H](CCCCN)C(N)=O` [HP(2-20)] (H-AKKVFKRLEKLFSKIQNDK-NH2; N-terminus and C-terminus assumed), in the series with P. acnes [6] (text summary of Table 1A, strain not named, read-out: MIC value against P. acnes), the MIC worked out at 0.8 µM (≈ 1.86 µg/mL). In addition, the “P. aeruginosa infection induced IL-8 expression (mRNA)” value in the series on IL-8 (3.2 μM, 24 hours) is given as “significantly inhibited”. Further, the “expression of IL-8, peptide without P. aeruginosa” value with IL-8 (data not shown) was “did not impact the expression of IL-8”. Also, the “MIC against M. furfur” value against M. furfur is under 0.195 µM.

In the case of `CC[C@H](C)[C@H](NC(=O)CN)C(=O)NCC(=O)N[C@@H](C)C(=O)N[C@H](C(=O)N[C@@H](CC(C)C)C(=O)N[C@@H](CCCCN)C(=O)N[C@H](C(=O)N[C@@H](CC(C)C)C(=O)N[C@H](C(=O)N[C@H](C(=O)NCC(=O)N[C@@H](CC(C)C)C(=O)N1CCC[C@H]1C(=O)N[C@@H](C)C(=O)N[C@@H](CC(C)C)C(=O)N[C@H](C(=O)N[C@@H](CO)C(=O)N[C@@H](Cc1c[nH]c2ccccc12)C(=O)N[C@H](C(=O)N[C@@H](CCCCN)C(=O)N[C@@H](CCCNC(=N)N)C(=O)N[C@@H](CCCCN)C(=O)N[C@@H](CCCNC(=N)N)C(=O)N[C@@H](CCC(N)=O)C(=O)N[C@@H](CCC(N)=O)C(N)=O)[C@@H](C)CC)[C@@H](C)CC)[C@@H](C)O)[C@@H](C)O)C(C)C)C(C)C` [Melittin], the “MIC against P. aeruginosa” value in [3] (setting [11]) came out at 8 µg/mL (≈ 2.81 µM); in series [3] (setting [8]) it was 16 µg/mL (≈ 5.62 µM).

In the case of `CN[C@H](CC(C)C)C(=O)N[C@H]1C(=O)N[C@@H](CC(N)=O)C(=O)N[C@H]2C(=O)N[C@H]3C(=O)N[C@H](C(=O)N[C@H](C(=O)O)c4cc(O)cc(O)c4-c4cc3ccc4O)[C@H](O)c3ccc(c(Cl)c3)Oc3cc2cc(c3O[C@@H]2O[C@H](CO)[C@@H](O)[C@H](O)[C@H]2O[C@H]2C[C@](C)(N)[C@H](O)[C@H](C)O2)Oc2ccc(cc2Cl)[C@H]1O` [Vancomycin, vancomycin], the “MIC against P. aeruginosa” value in series [3] (setting [8]) was over 32 µg/mL. Besides, in series [5], the MIC was over 32 µg/mL.

As to `CC[C@H](C)[C@H](NC(=O)[C@H](CCCCN)NC(=O)[C@H](CCC(=O)O)NC(=O)[C@H](CCCCN)NC(=O)[C@H](CO)NC(=O)[C@H](CCCCN)NC(=O)[C@H](CCCNC(=N)N)NC(=O)[C@H](Cc1ccccc1)NC(=O)[C@H](Cc1ccccc1)NC(=O)[C@H](CC(=O)O)NC(=O)CNC(=O)[C@H](CC(C)C)NC(=O)[C@@H](N)CC(C)C)C(=O)NCC(=O)N[C@@H](CCCCN)C(=O)N[C@@H](CCC(=O)O)C(=O)N[C@@H](Cc1ccccc1)C(=O)N[C@@H](CCCCN)C(=O)N[C@@H](CCCNC(=N)N)C(=O)N[C@H](C(=O)N[C@H](C(=O)N[C@@H](CCC(N)=O)C(=O)N[C@@H](CCCNC(=N)N)C(=O)N[C@H](C(=O)N[C@@H](CCCCN)C(=O)N[C@@H](CC(=O)O)C(=O)N[C@@H](Cc1ccccc1)C(=O)N[C@@H](CC(C)C)C(=O)N[C@@H](CCCNC(=N)N)C(=O)N[C@@H](CC(N)=O)C(=O)N[C@@H](CC(C)C)C(=O)N[C@H](C(=O)N1CCC[C@H]1C(=O)N[C@@H](CCCNC(=N)N)C(=O)N[C@H](C(=O)N[C@@H](CCC(=O)O)C(=O)N[C@@H](CO)C(=O)O)[C@@H](C)O)C(C)C)[C@@H](C)CC)C(C)C)[C@@H](C)CC` [LL37], the “MIC against P. aeruginosa” value in series [3] (setting [11]) and in series [3] (setting [8]) was over 32 µg/mL in each case.

As to `CCC[C@@H]1C[C@@H](C(=O)N[C@@H]([C@H]2O[C@H](SC)[C@H](O)[C@@H](O)[C@H]2O)[C@H](C)Cl)N(C)C1` [Clindamycin, clindamycin], the MIC with P. acnes [6] (setting [9]) was under 0.2 µM; in the series on P. acnes [6] (setting [10]), under 0.2 µM; in the series with S. aureus (ATCC8096, read-out: MIC against S. aureus), over 50 µM; in the series with S. aureus (ATCC25923, read-out: MIC against S. aureus), over 50 µM; in the series with S. aureus (ATCC29213, read-out: MIC against S. aureus), over 50 µM.

The values above are taken from patent US9278121B2, “Methods of use for an antimicrobial peptide” (priority 2013, dated 2016).
